Results from US20150133554A1, “PURIFICATION OF DPA ENRICHED OIL” (Omega Protein Corporation, priority 2013, published 2015).
Where two headings read alike, the source gives them in different places.

Tests used:
THP-1 cells [1] = test: Prostaglandin E2 production by LPS-stimulated THP-1 macrophages after fatty acid incubation; format: cell-based; settings: 24 h fatty acid (50 and 100 μM), then 24 h LPS; compared to other FA
Method: (§1) THP-1 cells were maintained in RPMI 1640+2 mM L-Glutamine, 10 mM HEPES, 1 mM sodium pyruvate, 4500 mg/L glucose, and 1500 mg/L sodium bicarbonate; supplemented with 3.5 μL/L of 2-mercaptoethanol and 10% fetal bovine serum (FBS). Cell line was maintained in 75 cm^2 filtered cap flasks in a 37° C. incubator with 5% CO2. THP-1 cells were seeded in 24 well plates at 5×10^5 cells/mL using 600 μL/well and allowed to differentiate into macrophages (MΦ) for 72 h with phorbol 12-myristate 13-acetate (PMA) at a final concentration of 50 ng/mL.
(§2) Experiment 2: Previously differentiated MΦ were incubated with fatty acids as described in ‘Experiment 1’ for 24 hours. At the 24 h time point the cells were then stimulated with lipopolysaccharide from E. coli 0111:B4 for another 24 hours. The plates were centrifuged at 1200×g for 5 minutes and supernatant was then collected and analyzed for cytokines. The MΦ were scraped off the plates and fatty acids were isolated as described in the ‘Animal Portion’. The fatty acid profiles of the MΦ were determined as previously described (Wang, et al., 2010, Clin. Nutr., DOI: 10.1016/j.clnu.2013.04.009).
The objective of this study was to determine if docosapentaenoic acid n-3 (DPAn3) enrichment of macrophages (MΦ) changed their inflammatory response relative to saturated (S), mono-unsaturated (MU), and other poly-unsaturated (PU) fatty acids (FA). […]

[2] = tested on: murine peritoneal macrophages; settings: cited from earlier work
THP-1 cells [3] = test: Cytokine release (TNF-α, MCP-1, IL-6) by LPS-stimulated THP-1 macrophages after fatty acid incubation; format: cell-based; settings: compared to control macrophages; for Inflammatory cytokine release (TNF-α, MCP-1, IL-6): 24 h fatty acid (50 and 100 μM), then 24 h LPS; for Cytokine release with increasing concentration of fatty acids: 50 to 100 μM
Method: as §1
Experiment 1: Prior to incubation with individual fatty acids, the cells were starved for 8 h in a 2% lipo-free FBS RPMI medium. Individual fatty acids were added in duplicate into the 24 well plate at two concentrations, 50 μM and 100 μM. Every assay was cultured in three runs with duplicates in each run pooled. After incubation for 24 h with fatty acids the MΦ were scraped off the plates and fatty acids were isolated as described in the ‘Animal Tests’ portion of this Example. The fatty acid profiles of the MΦ were determined as previously described (Wang, et al., 2010, Clin. Nutr., DOI: 10.1016/j.clnu.2013.04.009).
as §2
A linear mixed effects model was used in R, lme in the nlme package, for estimating treatment effects on cytokine production in LPS stimulated THP-1 cells. The fixed effects fit were treatment, FA concentration, and when significant LPS concentration was fit as a covariate, the plate cells were cultured on nested within run was fit as a random effect. Least squares means were analyzed as outlined above and pairwise comparisons were made between treatments for FA concentration, or where significant LPS concentration.
The objective of this study was to determine if docosapentaenoic acid n-3 (DPAn3) enrichment of macrophages (MΦ) changed their inflammatory response relative to saturated (S), mono-unsaturated (MU), and other poly-unsaturated (PU) fatty acids (FA). Differentiated THP-1 cells were incubated with one of 11 FA (50 and 100 μM) of varying degrees of unsaturation or no FA for 24 h prior to 24 h of stimulation with lipopolysaccharide from E. coli. Fatty acids were collected from MΦ without stimulation to determine the fatty acid profiles. Media was collected from MΦ post-stimulation and probed for prostaglandin E2, and cytokines, including tumor necrosis factor-α, monocyte chemoattractant protein-1, and interleukin-6. Prostaglandin E2 production was greater (P<0.05) for AA than all other FA, and omega-3 PUFA decreased (P<0.01) PGE2 compared to n6 PUFA and all other FA.

MCP-1 = test: Fluorescence intensity (relative) of brain microvessel, MCP-1; format: in vivo, mice; settings: control = 1.00
Source text: (§3) 48 male LDLr−/− mice (8-10 weeks of age, ˜20 g) were obtained from Jackson Laboratories (stock #2207) and allowed to acclimate to the cages, room, and feeding design for 12 days. After the acclimation period mice were weighed and randomly assigned to one of six treatments. Mice were fed an isolipid (20% total fatty acids w/w), isonitrogenous, and 0.2% cholesterol (w/w) diet, which is considered atherogenic (Ain76, 58TQ TestDiet®) as a base diet. This base diet was formulated to meet or exceed all nutrient and energy requirements for a growing mouse. The treatments were added to the base diet (0.76% w/w of the total diet) and was made once at the beginning of the study, separated into weekly aliquots, stored at −80° C., allowed to thaw at 4° C. for 2 days prior to feeding, and stored at 4° C. until fed. A sample from each weekly aliquot was collected, composited, and archived for fatty acid analysis at a later date. The treatments were as follows: (1) Negative control diet, 3.5% of the total fatty acids were replaced with milk fat (the only source of fat in the base diet), (2) 3.5% of the total fatty acids were replaced with purified ethyl esters of DHA, (3) 3.5% of the total fatty acids were replaced with purified ethyl esters of DPAn3, (4) 3.5% of the total fatty acids were replaced with purified ethyl esters of EPA, (5) 3.5% of the total fatty acids were replaced with omega-3 fatty acids from Lovaza® (GlaxoSmithKline), and (6) 3.5% of the total fatty acids were replaced with omega-3 fatty acids from ΩmegaActiv® DPA 5000 (Omega Protein Inc., Houston, Tex.; Table 1). […]

LDLr−/− mice [4] = test: Serum glucose of LDLr−/− mice fed an atherogenic diet; format: in vivo; settings: week 20
Source text: (§4) 48 male LDLr−/− mice (8-10 weeks of age, ˜20 g) were obtained from Jackson Laboratories (stock #2207) and allowed to acclimate to the cages, room, and feeding design for 12 days. After the acclimation period mice were weighed and randomly assigned to one of six treatments. Mice were fed an isolipid (20% total fatty acids w/w), isonitrogenous, and 0.2% cholesterol (w/w) diet, which is considered atherogenic (Ain76, 58TQ TestDiet®) as a base diet. This base diet was formulated to meet or exceed all nutrient and energy requirements for a growing mouse. The treatments were added to the base diet (0.76% w/w of the total diet) and was made once at the beginning of the study, separated into weekly aliquots, stored at −80° C., allowed to thaw at 4° C. for 2 days prior to feeding, and stored at 4° C. until fed. A sample from each weekly aliquot was collected, composited, and archived for fatty acid analysis at a later date. […]
(§5) Mouse body weights were recorded once weekly in conjunction with cage changes. Blood serum lipid profiles were analyzed on blood samples from the mice before (subset of 6 mice), 10 weeks, and 20 weeks relative to initiation of dietary treatments. […] Total lipid content was measured using the procedure outline by Folch, et al. (1957) J. Biol. Chem., 226:497-509, prior to cholesterol assessment. Total cholesterol, free cholesterol, and cholesterol ester were quantified as previously described (Wang, et al., 2010, Clin. Nutr., DOI: 10.1016/j.clnu.2013.04.009).
Average daily feed intake for the mice was cut into quartiles in order to assign a feed consumption class. […] Least squares means were calculated using the lsmeans package for all blood lipid profiles and a general linear hypothesis test, using glht in the multcomp package, was utilized for specified contrasts, control vs. the average of all omega-3 containing diets. […]

TNF-α [5] = test: Fluorescence intensity (relative) of brain hippocampus, TNF-α; format: in vivo, mice; settings: control = 1
Source text: as §3

IL-8 [6] = test: Fluorescence intensity (relative) of brain microvessel, IL-8; format: in vivo, mice; settings: control = 1.00
Source text: as §3

LDLr−/− mice [7] = test: Serum lipid profile of LDLr−/− mice fed an atherogenic diet; format: in vivo; settings: week 20
Source text: (§6) 48 male LDLr−/− mice (8-10 weeks of age, ˜20 g) were obtained from Jackson Laboratories (stock #2207) and allowed to acclimate to the cages, room, and feeding design for 12 days. After the acclimation period mice were weighed and randomly assigned to one of six treatments. Mice were fed an isolipid (20% total fatty acids w/w), isonitrogenous, and 0.2% cholesterol (w/w) diet, which is considered atherogenic (Ain76, 58TQ TestDiet®) as a base diet. This base diet was formulated to meet or exceed all nutrient and energy requirements for a growing mouse. The treatments were added to the base diet (0.76% w/w of the total diet) and was made once at the beginning of the study, separated into weekly aliquots, stored at −80° C., allowed to thaw at 4° C. for 2 days prior to feeding, and stored at 4° C. until fed. A sample from each weekly aliquot was collected, composited, and archived for fatty acid analysis at a later date. The treatments were as follows: (1) Negative control diet, 3.5% of the total fatty acids were replaced with milk fat (the only source of fat in the base diet), (2) 3.5% of the total fatty acids were replaced with purified ethyl esters of DHA, (3) 3.5% of the total fatty acids were replaced with purified ethyl esters of DPAn3, (4) 3.5% of the total fatty acids were replaced with purified ethyl esters of EPA, (5) 3.5% of the total fatty acids were replaced with omega-3 fatty acids from Lovaza® (GlaxoSmithKline), and (6) 3.5% of the total fatty acids were replaced with omega-3 fatty acids from ΩmegaActiv® DPA 5000 (Omega Protein Inc., Houston, Tex.; Table 1).
Mouse body weights were recorded once weekly in conjunction with cage changes. Blood serum lipid profiles were analyzed on blood samples from the mice before (subset of 6 mice), 10 weeks, and 20 weeks relative to initiation of dietary treatments. Three to five days prior to the end of the study each mouse was administered an intraperitoneal injection of 1.0 mL thioglycollate broth (4.05 g/dL) to elicit peritoneal macrophages. The peritoneal cells centrifuged then cultured in RPMI 1640 (+2 mM L-glutamine, +10 mM HEPES, +1 mM sodium pyruvate, +4500 mg/L glucose, +1500 mg/L sodium bicarbonate) on tissue culture plates (size) which allowed for adhesion of the macrophages. Plates where then vigorously washed to ensure proper macrophage isolation. Macrophages were scraped off the plates and aliquotted into a glass tube for fatty acid extraction, which was then performed via a modified Folch method. The heart and aorta were isolated from each mouse and immediately frozen in liquid nitrogen for later dissection. Aortic arches were dissected from the aortic root to the abdominal aorta using a microscope. Total lipid content was measured using the procedure outline by Folch, et al. (1957) J. Biol. Chem., 226:497-509, prior to cholesterol assessment. Total cholesterol, free cholesterol, and cholesterol ester were quantified as previously described (Wang, et al., 2010, Clin. Nutr., DOI: 10.1016/j.clnu.2013.04.009).
Average daily feed intake for the mice was cut into quartiles in order to assign a feed consumption class. A linear mixed effects model was used in R, lme in the nlme package, for estimating treatment effects on blood lipid profiles in mice. The fixed effects fit were treatment, and week of study, animal nested within treatment was fit as a random effect. Least squares means were calculated using the lsmeans package for all blood lipid profiles and a general linear hypothesis test, using glht in the multcomp package, was utilized for specified contrasts, control vs. the average of all omega-3 containing diets. Because Lovaza® is composed of high and almost equal levels of EPA and DHA we also contrasted the diet supplemented with Lovaza® to the average of the diets supplemented with EPA and DHA alone. Pairwise comparisons were made between time of blood analysis, and between treatments at each individual time frame.

LDLr−/− mice [8] = test: Lipid and cholesterol (TC, FC, CE) in aortas of LDLr−/− mice fed an atherogenic diet; format: in vivo; settings: supplement 0.76% w/w of the diet
Source text: as §4, §5
An analysis of variance model was used in R, aov in the stats package, for estimating treatment effects on cholesterol deposition in mouse aortas. Least squares means and contrasts were analyzed as outlined above. […]

TIMP2 = test: Fluorescence intensity (relative) of brain hippocampus, TIMP2; format: in vivo, mice; settings: control = 1
Source text: as §3

TNF-α [9] = test: TNF-α concentration in adipose tissue of mice fed omega-3 products; format: in vivo
Source text: as §6
TNF-α concentration in adipose tissue of mice fed with different omega-3 products

IL-8 [10] = test: Fluorescence intensity (relative) of brain hippocampus, IL-8; format: in vivo, mice; settings: control = 1
Source text: as §3

Row | SMILES | Prostaglandin E2 production (THP-1 cells [1]) | TNF-α production ([2]; AA at 2-5 μM) | TNF-α production ([2]; AA at concentrations as low as 1 μM) | Inflammatory cytokine release (TNF-α, MCP-1, IL-6) (THP-1 cells [3]) | Cytokine release with increasing concentration of fatty acids (THP-1 cells [3]) | MCP-1 fluorescence intensity (relative) (MCP-1) | Glucose concentration in serum (LDLr−/− mice [4]) | TNF-α fluorescence intensity (relative) (TNF-α [5]) | IL-8 fluorescence intensity (relative) (IL-8 [6]) | Serum LDL cholesterol (LDLr−/− mice [7]) | Serum total cholesterol (LDLr−/− mice [7]) | Aorta lipid (LDLr−/− mice [8]) | TIMP2 fluorescence intensity (relative) (TIMP2) | TNF-α Concentration (TNF-α [9]) | IL-8 fluorescence intensity (relative) (IL-8 [10])
1 | CCCCC/C=C\C/C=C\C/C=C\C/C=C\CCCC(=O)O [AA, arachidonic acid] | greater | completely inhibited | decreased | decreased | – | – | – | – | – | – | – | – | – | – | –
2 | CCCCCCCCCCCCCCCC(=O)O [C16:0] | – | – | – | did not change | did not change, or increased | – | – | – | – | – | – | – | – | – | –
3 | CCCCCCCCCCCCCCCCCC(=O)O [C18:0] | – | – | – | did not change | did not change, or increased | – | – | – | – | – | – | – | – | – | –
4 | CC/C=C\C/C=C\C/C=C\C/C=C\C/C=C\C/C=C\CCC(=O)O [DHA, docosahexaenoic acid] | – | – | – | – | – | 0.93 | 172.58 mg/dL | 0.29 | 0.86 | 495.51 mg/dL | 726.86 mg/dL | 36.38% | 0.23 | 0.82 pg/μg protein | 0.46
5 | CC/C=C\C/C=C\C/C=C\C/C=C\C/C=C\CCCCCC(=O)O [DPA, docosapentaenoic acid] | – | – | – | – | – | 0.92 | 166.23 mg/dL | 0.28 | 0.96 | 563.45 mg/dL | 692.98 mg/dL | 29.52% | 0.17 | 0.41 pg/μg protein | 0.70
6 | CC/C=C\C/C=C\C/C=C\C/C=C\C/C=C\CCCC(=O)O [EPA, eicosapentaenoic acid] | – | – | – | – | – | 0.96 | 198.65 mg/dL | 0.31 | 0.93 | 562.07 mg/dL | 663.37 mg/dL | 29.93% | 0.63 | 0.58 pg/μg protein | 0.72
7 | CCCCCCCC/C=C\CCCCCCCC(=O)O [oleic acid] | – | – | – | did not change | did not change, or increased | – | – | – | – | – | – | – | – | – | –
